From paper PMC12491701, “Discovery of an APP-selective BACE1 inhibitor for Alzheimer's disease” (Neurotherapeutics, 2025)
In brackets after ≈: the same amount, converted by molar mass. Several values for one entry are separate records, joined by “and”; a condition that tells them apart may be missing. Equal values may be shown once.

What was measured:
[1] = Pilot PK of FAH65 vs. verubecestat in rats; type: in vivo, rat; details: oral gavage, 30 mg/kg
Kinetic solubility assay = type: physicochemical; details: PBS pH 7.4, 37 °C
Procedure: FAH65 and its enantiomers at 10 mM in 100% DMSO was diluted in PBS pH 7.4 to 100, 10, 1, and 0.1 µM; plus, a vehicle-only control. The solutions were incubated at 37 °C for 90 min and centrifuged at 16K x g for 5 min. An aliquot of each supernatant was analyzed by LC-MS/MS. A standard curve was generated by plotting the known amount of analyte per standard in DMSO vs. chromatographic peak […]
Kinetic solubility (µM) was calculated using the trendline equation with maximum chromatographic peak area observed in the aqueous sample. (Table S3)
(§1) Liver microsome stability assay
(§2) A 1 µL sample of 1 mM FAH65 and its enantiomers in 100% DMSO was added to 1 mL of 0.5 mg/mL human liver microsomes (Thermo Fisher Scientific, Cat# HMMPL) in PBS pH 7.4, 2 mM NADPH, and 2 mM MgCl2; and incubated at 37 °C for 120 min. Aliquots (50 µL) of the microsome solution were taken […]
quenching solution containing an internal standard. Solutions were clarified by centrifugation (16K x g, 5 min) and supernatants transferred to new tubes and lyophilized. Samples were reconstituted in 100 µL of 50/50/0.1 water/acetonitrile/formic acid prior to analysis via LC-MS/MS. […]
(§3) One µL FAH65 and its enantiomers (1 mM in 100% DMSO) was added to human peripheral blood plasma (Cat#70039, Stemcell Technologies Inc) diluted 2-fold in PBS (1000 µL, pH 7.4) and incubated […]

[2] = Brain tissue binding assay; type: in vitro ADME, mouse; details: brain homogenate, 2 µM compound
Procedure: The […]
(§4) KIAM = (tr – t0) / t0; Pm = (KIAM / MW4) x 1010
(§5) Compounds with a Pm >0.85 are predicted to be BBB permeable (CNS+) at pH 7.4.
Brain Tissue Binding Assay
Brain tissue was homogenized in PBS (pH 7.4) (1: 3 weight(mg)/volume(µL)) and the protein concentration determined using the Micro BCA™ Pr otein Assay Kit (Thermo Fisher Scientific, Cat#23235). Brain homogenate was diluted to 20 mg/mL in PBS (pH 7.4) and added to Slide-A-Lyzer™ MINI Dialysis Devices, 10K MWCO dialysis cups (Thermo Fisher Scientific, Cat#PI88401) in a 48-well plate containing PBS (500 µL; pH 7.4). 1 µL of 1 mM compound was added to the brain homogenate (final concentration: 2 µM compound, 0.5% DMSO) and incubated on a rocker for 4.5 hours at 37 °C. 50 µL of brain homogenate (within the dialysis cup) and PBS (within the 48-well plate) were transferred to new microcentrifuge tubes containing 200 µL of quenching reagent (100% acetonitrile) containing internal standard. Solutions were clarified by centrifugation (16,000 x g, 5 min) and the supernatants were transferred to new tubes and lyophilized. Samples were reconstituted in 100 µL of 50/50/0.1 (Water/Acetonitrile/Formic Acid) prior to analysis via LC-MS/MS.
The % of the unbound drug was calculated using the following equation: fubound = [normalized peak area in buffer side / normalized peak area in brain side] x 100

BACE1 = BACE1 (Homo sapiens, UniProt P56817); assay: P5-P5′ BACE1 inhibition assay; type: biochemical; details: for IC50: cell-free, read-out: BACE1 IC50 (P5-P5′ assay; BACE1-APP)
Sequence of BACE1 (P56817 46-501): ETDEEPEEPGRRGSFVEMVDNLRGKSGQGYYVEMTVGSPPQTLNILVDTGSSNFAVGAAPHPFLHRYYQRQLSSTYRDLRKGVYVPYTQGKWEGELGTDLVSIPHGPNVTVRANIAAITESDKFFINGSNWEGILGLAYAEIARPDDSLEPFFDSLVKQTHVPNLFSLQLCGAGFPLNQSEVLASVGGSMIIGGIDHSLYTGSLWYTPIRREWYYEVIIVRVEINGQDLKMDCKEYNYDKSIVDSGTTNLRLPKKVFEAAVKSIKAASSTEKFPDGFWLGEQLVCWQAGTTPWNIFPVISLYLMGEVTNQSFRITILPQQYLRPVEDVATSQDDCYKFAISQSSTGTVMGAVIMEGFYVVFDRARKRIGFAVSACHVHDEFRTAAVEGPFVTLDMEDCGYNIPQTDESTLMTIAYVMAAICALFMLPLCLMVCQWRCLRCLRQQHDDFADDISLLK

Plasma stability assay = type: in vitro ADME; details: human plasma, 37 °C, 180 min
Procedure: The effects of candidate ASBIs on BACE2 activity was assessed using the R&D Systems BACE2 activity assay kit (Catalog #: 4097-AS and ES010) formatted from to the manufacturers. For the assay, 4 μL of assay buffer was added to each well, followed by 2 μL of BACE2 diluted in assay buffer to 10 ng/µL.
Then, 2 μL of inhibitor, at the appropriate concentrations were added to the wells and incubated for 30 minutes at room temperature. For all dilutions of inhibitor, drug stock solutions of 10 mM in DMSO were diluted to 50 μM in water; subsequent dilutions were in 0.5% DMSO. Afterwards, 2 μL of fluorogenic BACE2 substrate, diluted to 50 μM in assay buffer, were added to each well, after which the signal generated was read every 30 minutes at 25 °C for 2 hr (Fig S2).
FAH65 and its enantiomers at 10 mM in 100% DMSO was diluted in PBS pH 7.4 to 100, 10, 1, and 0.1 µM; plus, a vehicle-only control. The solutions were incubated at 37 °C for 90 min and centrifuged at 16K x g for 5 min. An aliquot of each supernatant was analyzed by LC-MS/MS. […]
Kinetic solubility (µM) was calculated using the trendline equation with maximum chromatographic peak area observed in the aqueous sample. […]
([…]® CAN, Chiral Technologies, Cat#H15L-109, 5 µm 50 x 4 mm). […] The retention time of the compound (tr) and injection peak were recorded.
The percent protein binding (P) was calculated using the following equations: […]

[3] = target: T1, human serum albumin (HSA) (Homo sapiens, UniProt P02768); assay: Human serum albumin (HSA) binding assay; type: in vitro ADME
T1 construct: purchased Chiral Technologies H15L-109
T1 sequence (P02768 25-609): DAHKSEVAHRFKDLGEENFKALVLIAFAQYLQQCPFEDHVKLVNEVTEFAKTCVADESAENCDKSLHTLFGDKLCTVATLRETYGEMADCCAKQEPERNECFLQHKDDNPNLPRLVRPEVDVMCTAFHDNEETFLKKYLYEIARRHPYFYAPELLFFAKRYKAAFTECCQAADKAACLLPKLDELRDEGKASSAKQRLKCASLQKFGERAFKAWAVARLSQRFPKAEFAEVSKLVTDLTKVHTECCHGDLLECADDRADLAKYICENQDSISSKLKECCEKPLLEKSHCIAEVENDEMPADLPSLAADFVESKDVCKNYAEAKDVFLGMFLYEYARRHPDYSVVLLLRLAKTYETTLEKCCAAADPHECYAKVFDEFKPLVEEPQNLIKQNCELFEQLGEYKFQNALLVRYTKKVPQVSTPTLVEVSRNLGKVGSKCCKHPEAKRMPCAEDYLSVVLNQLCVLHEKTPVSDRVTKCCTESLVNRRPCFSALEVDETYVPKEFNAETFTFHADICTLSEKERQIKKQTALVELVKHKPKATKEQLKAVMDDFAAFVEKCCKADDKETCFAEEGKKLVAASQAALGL
Procedure: Human serum albumin (HSA) binding assay
The liquid chromatography-ultraviolet/visible spectroscopy (LC-UV/Vis) assay was performed on a 1290 Infinity HPLC system (Agilent Technologies) with an HPLC column containing immobilized HSA
([…]® CAN, Chiral Technologies, Cat#H15L-109, 5 µm 50 x 4 mm). The HPLC method utilized an isocratic gradient containing 100% 6.7 mM phosphate buffer saline (pH 7.4). The retention time of the compound (tr) and injection peak were recorded.
The percent protein binding (P) was calculated using the following equations:
K’ = (tr – tm) / tm; P = 100 x [K’ / (K’ + 1)] […]
The […]
as §4, §5
Brain Tissue Binding Assay […]
Cat#23235). Brain homogenate was diluted to 20 mg/mL in PBS (pH 7.4) and added to Slide-A-Lyzer™ MINI Dialysis Devices, 10K MWCO dialysis cups (Thermo Fisher Scientific, Cat#PI88401) in a 48-well plate containing PBS (500 µL; pH 7.4). 1 µL of 1 mM compound was added to the brain homogenate (final concentration: 2 µM compound, 0.5% DMSO) and incubated on a rocker for 4.5 hours at 37 °C. 50 µL of brain homogenate (within the dialysis cup) and PBS (within the 48-well plate) were transferred to new microcentrifuge tubes containing 200 µL of quenching reagent (100% acetonitrile) containing internal […]
standard. […]

[4] = Liver microsome stability assay; type: in vitro ADME; details: human liver microsomes
Procedure: as §1, §2
quenching solution containing an internal standard. Solutions were clarified by centrifugation (16K x g, 5 min) and supernatants transferred to new tubes and lyophilized. Samples were reconstituted in 100 µL of 50/50/0.1 water/acetonitrile/formic acid prior to analysis via LC-MS/MS.
Normalized chromatographic peak areas were plotted at each time point and the half-life (t1/2) of compound in liver microsomes was determined by using the trendline equation to calculate the time at which compound abundance was 50% of that at timepoint 0 (T0).
as §3
and 180 min, and added to a 200 µL 100% acetonitrile reaction quenching solution containing an internal standard. Solutions were clarified by centrifugation (16K x g, 5 min) and supernatants were transferred to new tubes and lyophilized. […]

Pharmacokinetics in mice = type: in vivo, mouse; details: SQ injection of 10 mg/Kg, in words; 10 mg/kg
Procedure: Wildtype or non-transgenic (NTg) C57Bl6 mice or Sprague-Dawley rats were dosed by oral (gavage) or subcutaneous (SQ) injection at 10 or 30 mg/kg, and animals were euthanized 1, 2, 6, and 8 h after administration by ketamine/xylazine over-anesthesia, in rats, CSF was also collected, followed by transcardial collection of blood for isolation of plasma and saline perfusion. Brain tissue was collected post-mortem for assessment of compound levels and biomarkers.
Analyses of compound levels in PK studies were performed in the UCLA Pasarow Mass Spectrometry Lab (PMSL; Julian Whitelegge, Ph.D., Director). Tissues were homogenized in a bead beater using 5 vol of ice-cold 80 % acetonitrile (1/5; mg of brain/μL of 80 % ACN). Plasma analytes were extracted using 4 vol of ice-cold acetonitrile (1/4; μL of plasma/μL of 100 % ACN). Solutions were clarified by centrifugation (16,000×g, 5 min) and the supernatants were transferred to new tubes and lyophilized. Samples were reconstituted in 100 μL of 50/50/0.1 (Water/Acetonitrile/Formic Acid) prior to analysis via liquid chromatography-tandem mass spectrometry (LC-MS/MS).
An internal standard (IS) was added to every sample to account for compound loss during sample processing. Standards were made in drug naïve plasma and tissue lysates with increasing amounts of analyte (S1, S2: 0 pmol/S3, S4: 1 pmol/S5, S6: 10 pmol/S7, S8: 100 pmol, S9, S10: 1000 pmol). The standard curve was made by plotting the known amount of analyte per standard vs. the ratio of measured chromatographic peak areas corresponding to the analyte over that of the IS (analyte/IS). The trendline equation was then used to calculate the absolute concentrations of each compound in plasma and tissue.
The targeted LC-MS/MS assay was developed using the multiple reaction monitoring (MRM) acquisition method on a 6460 triple quadrupole mass spectrometer (Agilent Technologies) coupled to a 1290 Infinity HPLC system (Agilent Technologies) with a Phenomenex analytical column (Kinetex 1.7 μm C18 100 Å 100 × 2.1 mm). The HPLC method utilized a mixture of solvent A (99.9/0.1 Water/Formic Acid) and solvent B (99.9/0.1 Acetonitrile/Formic Acid) and a gradient was use for the elution of the compounds (min/%B: 0/1, 3/1, 19/99, 20/1, 30/1). Two fragment ions were monitored at specific LC retention times to ensure specificity and accurate quantification in the complex biological samples. The normalized chromatographic peak areas were determined by taking the ratio of measured chromatographic peak areas corresponding to the compound over that of the internal standard (Analyte/IS).
The Tmax, Cmax, brain-to-plasma ratios and brain levels were then calculated using PK Solutions software (SummitPK).

[5] = test system: CHO-7W cells expressing wildtype human APP; assay: sAPPβ and Aβ1-42 production in CHO-7W cells (AlphaLISA); type: cell-based, Chinese hamster; details: in words
Procedure: Culture Media was collected and frozen. Media was assayed using an AlphaLISA for Aβ1-42 (Perkin Elmer catalog # AL276C), sAPPα (R&D Systems catalog # AF1168 conjugated with Perkin Elmer acceptor beads catalog # 6772001 + 2B3 antibody from IBL catalog # 11088 biotinylated), and sAPPβ (Perkin Elmer AL276-acceptor + IBL catalog # 18957 biotinylated). For the assay, 2 μL of diluted or undiluted sample was added to a 384 well plate, followed by 2 μL of the respective antibody mixture. This was incubated for 1 h. Afterwards, 2 μL of donor beads was added to each well, followed by a 30-min incubation in the dark, after which the signal was read.

BACE1 cleavage of NRG1 = target: T2, BACE1 cleavage of NRG1 (Homo sapiens, UniProt P56817); assay: SEAP-NRG assay; type: cell-based; details: at ∼1 μM, in words
T2 construct: with or without full-length wild-type BACE1; expressed in transfected cells; host or cells: HEK293
T2 sequence (P56817 46-501): as the sequence (P56817 46-501) above

eAPP = eAPP (Homo sapiens, UniProt P05067); assay: APP binding by surface plasmon resonance (SPR)
Sequence of eAPP (P05067 18-701): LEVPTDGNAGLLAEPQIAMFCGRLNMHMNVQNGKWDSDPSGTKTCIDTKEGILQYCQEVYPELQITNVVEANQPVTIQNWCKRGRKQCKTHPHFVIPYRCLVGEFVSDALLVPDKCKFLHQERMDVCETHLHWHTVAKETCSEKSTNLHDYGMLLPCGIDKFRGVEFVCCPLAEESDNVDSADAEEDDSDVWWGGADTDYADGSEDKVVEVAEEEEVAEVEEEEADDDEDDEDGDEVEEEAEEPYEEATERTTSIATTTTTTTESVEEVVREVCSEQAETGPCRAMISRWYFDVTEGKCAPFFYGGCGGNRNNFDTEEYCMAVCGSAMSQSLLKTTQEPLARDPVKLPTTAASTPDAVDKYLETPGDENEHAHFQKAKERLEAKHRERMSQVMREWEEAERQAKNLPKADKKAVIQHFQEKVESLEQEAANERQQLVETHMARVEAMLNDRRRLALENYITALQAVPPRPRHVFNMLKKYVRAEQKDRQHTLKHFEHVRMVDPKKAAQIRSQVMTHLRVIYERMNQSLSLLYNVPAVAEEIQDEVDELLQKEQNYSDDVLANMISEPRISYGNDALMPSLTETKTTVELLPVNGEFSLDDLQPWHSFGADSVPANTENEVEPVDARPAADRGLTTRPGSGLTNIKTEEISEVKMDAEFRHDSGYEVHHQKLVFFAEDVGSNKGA

Q: Which results are given for `CN1C(=N)N[C@](C)(c2cc(NC(=O)c3ccc(F)cn3)ccc2F)CS1(=O)=O` [Veru, verubecestat, reference compound]?
A: Cmax ([1]; both sexes, Sprague-Dawley, rat, brain): 157 ng/g; time of brain Cmax [1]: 2 h

Q: For `Cc1cc(C2(c3cccc(-c4cncnc4)c3)N=C(N)N(C)C2=O)ccc1OC(F)F` (stereo not drawn) [FAH65E(+)], which solubility kinetic at 90 min (Kinetic solubility assay) is on record?
A: 87 µM (≈ 36.8 µg/mL)

Q: What about the “Brain tissue binding, funbound” value [2] of the same compound?
A: 6.2%

Q: And the “Activity in the P5-P5′ assay” value (BACE1; in words)?
A: inactive

Q: What about the “Plasma stability t1/2” value (Plasma stability assay) of the same compound?
A: > 180 min

Q: And the “Plasma (HSA) binding, funbound” value [3]?
A: 0.8%

Q: What about the “Microsomal stability T1/2” value [4] of the same compound?
A: 24 min

Q: With `CN1C(=O)C(c2ccccc2)(c2cc(F)cc(F)c2)N=C1N` (centres unmarked) [FAH1] as the compound, how does the brain permeability (Pharmacokinetics in mice) read?
A: brain permeable

Q: And the IC50 (BACE1)?
A: 5000 to 10000 nM and ~10000 nM

Q: And the Aβ42 ([5]; 5 μM)?
A: decreased

Q: For `Cc1cc(C2(c3cc(F)cc(F)c3)N=C(N)N(C)C2=O)ccc1OC(F)F` (centres unmarked) [FAH3], which brain permeability (Pharmacokinetics in mice) is on record?
A: had brain permeability

Q: What about the inhibition at 1 µM (BACE1; at ∼1 μM, read-out: inhibition of BACE1 cleavage of APP) of the same compound?
A: 50%

Q: What about the IC50 (BACE1) of the same compound?
A: 1000 to 4000 nM and ~1000 nM and 500 to 1000 nM

Q: What about the Aβ1-42 production ([5]; 1 μM) of the same compound?
A: decreased

Q: What about the “inhibition of SEAP-NRG cleavage” value (BACE1 cleavage of NRG1) of the same compound?
A: no SEAP-NRG cleavage

Q: What about the Kd (eAPP) of the same compound?
A: ~300 nM
